According to patent publication US20240246964A1 (Arbutus Biopharma Corporation, priority 2021, published 2024):

Molecular target: human PD-L1 (Homo sapiens (Human), UniProt Q9NZQ7)
Assay: T cell activation luciferase reporter cell culture system (T Cell Activation Assay)
Assay type: cell-based
Settings: luciferase reporter assay; PD-L1 aAPC/CHO-K1 cells with PD-1 effector Jurkat T cells

Sequence of human PD-L1 (Q9NZQ7 19-290): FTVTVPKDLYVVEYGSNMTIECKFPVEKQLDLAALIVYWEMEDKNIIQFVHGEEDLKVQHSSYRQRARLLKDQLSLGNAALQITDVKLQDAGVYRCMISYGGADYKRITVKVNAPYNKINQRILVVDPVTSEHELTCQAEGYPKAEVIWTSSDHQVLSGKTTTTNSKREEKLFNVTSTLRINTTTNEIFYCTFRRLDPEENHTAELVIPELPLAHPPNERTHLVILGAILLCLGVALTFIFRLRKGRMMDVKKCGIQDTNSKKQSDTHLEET

| EC50 | SMILES |
| --- | --- |
| 22.1 nM | COc1cc(-c2nccc(-c3cccc(-c4ccc(CNC[C@@H]5CCC(=O)N5)c(OC)n4)c3Cl)c2Cl)ccc1CNC1CC2(C1)CN(C(C)=O)C2 [Example 237, (S)-5-((((6-(3-(2-(4-(((2-acetyl-2-azaspiro[3.3]heptan-6-yl)amino)methyl)-3-methoxyphenyl)-3-chloropyridin-4-yl)-2-chlorophenyl)-2-methoxypyridin-3-yl)methyl)amino)methyl)pyrrolidin-2-one] |
| 128 nM | COc1cc(-c2nccc(-c3cccc(-c4ccc5c(OC)c(CNCCO)cc(Cl)c5n4)c3Cl)c2Cl)ccc1CNC[C@@H]1CCC(=O)N1 [Example 238, (S)-5-(((4-(3-chloro-4-(2-chloro-3-(8-chloro-6-(((2-hydroxyethyl)amino)methyl)-5-methoxyquinolin-2-yl)phenyl)pyridin-2-yl)-2-methoxybenzyl)amino)methyl)pyrrolidin-2-one] |
| 29.1 nM | CNCc1ccc(-c2nccc(-c3cccc(-c4ccc(CNC5CCN(C(C)=O)CC5)c(OC)n4)c3Cl)c2Cl)cc1OC [Example 240, 1-(4-(((6-(2-chloro-3-(3-chloro-2-(3-methoxy-4-((methylamino)methyl)phenyl)pyridin-4-yl)phenyl)-2-methoxypyridin-3-yl)methyl)amino)piperidin-1-yl)ethan-1-one] |
| 437 nM | COc1cc(-c2cccc(-c3ccnc(-c4ccc5c(c4)CN(CCNC[C@@H]4CCC(=O)N4)C5=O)c3Cl)c2Cl)cc(F)c1CNC[C@@H]1CCC(=O)N1 [Example 242, 5-(3-Chloro-4-(2-chloro-3′-fluoro-5′-methoxy-4′-(((((S)-5-oxopyrrolidin-2-yl)methyl)amino)methyl)-[1,1′-biphenyl]-3-yl)pyridin-2-yl)-2-(2-((((S)-5-oxopyrrolidin-2-yl)methyl)amino)ethyl)isoindolin-1-one] |
| 104 nM | COc1cc(-c2nccc(-c3cccc(-c4ccc(CNC5CCN(C(C)=O)CC5)c(OC)n4)c3Cl)c2Cl)ccc1CN1CC2(CC(C(=O)O)C2)C1 [Example 243, 2-(4-(4-(3-(5-(((1-acetylpiperidin-4-yl)amino)methyl)-6-methoxypyridin-2-yl)-2-chlorophenyl)-3-chloropyridin-2-yl)-2-methoxybenzyl)-2-azaspiro[3.3]heptane-6-carboxylic acid] |
| 25.2 nM | COc1cc(-c2nccc(-c3cccc(-c4ccc(CNC5CCN(C(C)=O)CC5)c(OC)n4)c3Cl)c2Cl)ccc1CN1CC2(CNC(=O)C2)C1 [Example 244, 2-(4-(4-(3-(5-(((1-acetylpiperidin-4-yl)amino)methyl)-6-methoxypyridin-2-yl)-2-chlorophenyl)-3-chloropyridin-2-yl)-2-methoxybenzyl)-2,6-diazaspiro[3.4]octan-7-one] |
| 187 nM | COc1cc(-c2nccc(-c3cccc(-c4ccc(CNC5CCN(C(C)=O)CC5)c(OC)n4)c3Cl)c2Cl)ccc1CN1CC[C@H](C(=O)OC(C)C)C1 [Example 245, Isopropyl (S)-1-(4-(4-(3-(5-(((1-acetylpiperidin-4-yl)amino)methyl)-6-methoxypyridin-2-yl)-2-chlorophenyl)-3-chloropyridin-2-yl)-2-methoxybenzyl)pyrrolidine-3-carboxylate] |
| 101 nM | COc1cc(-c2nccc(-c3cccc(-c4ccc5c(CNC6CCN(C(C)=O)CC6)cn(C)c5n4)c3Cl)c2Cl)ccc1CNC1CCN(C(C)=O)CC1 [Example 246, 1-(4-((4-(4-(3-(3-(((1-acetylpiperidin-4-yl)amino)methyl)-1-methyl-1H-pyrrolo[2,3-b]pyridin-6-yl)-2-chlorophenyl)-3-chloropyridin-2-yl)-2-methoxybenzyl)amino)piperidin-1-yl)ethan-1-one] |
| 596 nM | COc1nc(-c2ccnc(-c3cccc4c3CC[C@@H]4Oc3nc(OC)c(CN4CC5(C4)CN(C(C)=O)C5)cc3C(F)(F)F)c2Cl)ccc1CN1CC2(C1)CN(C(C)=O)C2 [Example 248, (S)-1-(6-((6-((4-(5-((6-Acetyl-2,6-diazaspiro[3.3]heptan-2-yl)methyl)-3′-chloro-6-methoxy-[2,4′-bipyridin]-2′-yl)-2,3-dihydro-1H-inden-1-yl)oxy)-2-methoxy-5-(trifluoromethyl)pyridin-3-yl)methyl)-2,6-diazaspiro[3.3]heptan-2-yl)ethan-1-one] |
| 81.7 nM | COc1cc(-c2nccc(-c3cccc(-c4ccc(CN5CC6(C5)CN(C(C)=O)C6)c(OC)n4)c3Cl)c2Cl)cc2c1CN(CCCF)CC2 [Example 249, 1-(6-((6-(2-Chloro-3-(3-chloro-2-(2-(3-fluoropropyl)-8-methoxy-1,2,3,4-tetrahydroisoquinolin-6-yl)pyridin-4-yl)phenyl)-2-methoxypyridin-3-yl)methyl)-2,6-diazaspiro[3.3]heptan-2-yl)ethan-1-one] |
| 31 nM | COc1cc(-c2nccc(-c3cccc(-c4ccc(CN5CC6(CNC(=O)C6)C5)c(OC)n4)c3Cl)c2Cl)cc2c1CN(CCCF)CC2 [Example 250, 2-((6-(2-Chloro-3-(3-chloro-2-(2-(3-fluoropropyl)-8-methoxy-1,2,3,4-tetrahydroisoquinolin-6-yl)pyridin-4-yl)phenyl)-2-methoxypyridin-3-yl)methyl)-2,6-diazaspiro[3.4]octan-7-one] |
| 117 nM | COc1cc(-c2nccc(-c3cccc(-c4ccc(CNC5CC6(COC6)C5)c(OC)n4)c3Cl)c2Cl)cc2c1CN(CCCF)CC2 [Example 251, N-((6-(2-Chloro-3-(3-chloro-2-(2-(3-fluoropropyl)-8-methoxy-1,2,3,4-tetrahydroisoquinolin-6-yl)pyridin-4-yl)phenyl)-2-methoxypyridin-3-yl)methyl)-2-oxaspiro[3.3]heptan-6-amine] |
| 54 nM | COc1cc(-c2nccc(-c3cccc(-c4ccc(CNCC5(CO)CC5)c(OC)n4)c3Cl)c2Cl)cc2c1CN(CCCF)CC2 [Example 252, (1-((((6-(2-Chloro-3-(3-chloro-2-(2-(3-fluoropropyl)-8-methoxy-1,2,3,4-tetrahydroisoquinolin-6-yl)pyridin-4-yl)phenyl)-2-methoxypyridin-3-yl)methyl)amino)methyl)cyclopropyl)methanol] |

The next lines start with the compound.

| SMILES | EC50 |
| --- | --- |
| COc1nc(-c2cncc(-c3cccc(NC(=O)c4cn(C)c(=O)n(C)c4=O)c3Cl)c2Cl)ccc1CN1CC2(CNC(=O)C2)C1 [Compound 722, N-(2-Chloro-3-(4′-chloro-6-methoxy-5-((7-oxo-2,6-diazaspiro[3.4]octan-2-yl)methyl)-[2,3′-bipyridin]-5′-yl)phenyl)-1,3-dimethyl-2,4-dioxo-1,2,3,4-tetrahydropyrimidine-5-carboxamide] | 818 nM |
| COc1nc(-c2cncc(-c3cccc(NC(=O)c4cn(C)c(=O)n(C)c4=O)c3Cl)c2Cl)ccc1CNC1CCN(C(C)=O)CC1 [Compound 723, N-(3-(5-(((1-Acetylpiperidin-4-yl)amino)methyl)-4′-chloro-6-methoxy-[2,3′-bipyridin]-5′-yl)-2-chlorophenyl)-1,3-dimethyl-2,4-dioxo-1,2,3,4-tetrahydropyrimidine-5-carboxamide] | 1850 nM |
| COc1nc(-c2cncc(-c3cccc(NC(=O)c4cn(C)c(=O)n(C)c4=O)c3Cl)c2Cl)ccc1CNC[C@H](C)O [Compound 729, (S)—N-(2-Chloro-3-(4′-chloro-5-(((2-hydroxypropyl)amino)methyl)-6-methoxy-[2,3′-bipyridin]-5′-yl)phenyl)-1,3-dimethyl-2,4-dioxo-1,2,3,4-tetrahydropyrimidine-5-carboxamide] | 652 nM |
| COc1nc(-c2cncc(-c3cccc(NC(=O)c4cn(C)c(=O)n(C)c4=O)c3Cl)c2Cl)ccc1CN1CC2(C1)CN(C(C)=O)C2 [Compound 730, N-(3-(5-((6-Acetyl-2,6-diazaspiro[3.3]heptan-2-yl)methyl)-4′-chloro-6-methoxy-[2,3′-bipyridin]-5′-yl)-2-chlorophenyl)-1,3-dimethyl-2,4-dioxo-1,2,3,4-tetrahydropyrimidine-5-carboxamide] | 1100 nM |
| COc1nc(-c2cccc(-c3ccnc(-c4cc5c(=O)n(C)c(CN6CC(C)(O)C6)nn5c4)c3Cl)c2Cl)ccc1CN[C@H]1C[C@](C)(O)C1 [Example 232, 6-(3-Chloro-4-(2-chloro-3-(5-((((1r,3r)-3-hydroxy-3-methylcyclobutyl)amino)methyl)-6-methoxypyridin-2-yl)phenyl)pyridin-2-yl)-2-((3-hydroxy-3-methylazetidin-1-yl)methyl)-3-methylpyrrolo[2,1-f][1,2,4]triazin-4(3H)-one] | 102 nM |
| COc1nc(-c2cccc(-c3ccnc(-c4cc5c(=O)n(C)c(CN6CC(C)(O)C6)nn5c4)c3Cl)c2Cl)ccc1CNC(C)C [Example 233, 6-(3-Chloro-4-(2-chloro-3-(5-((isopropylamino)methyl)-6-methoxypyridin-2-yl)phenyl)pyridin-2-yl)-2-((3-hydroxy-3-methylazetidin-1-yl)methyl)-3-methylpyrrolo[2,1-f][1,2,4]triazin-4(3H)-one] | ≥ 10000 nM |
| COc1nc(-c2cccc(-c3ccnc(-c4cc5c(=O)n(C)c(CN6CC(C)(O)C6)nn5c4)c3Cl)c2Cl)ccc1CN[C@H]1CC[C@H](O)CC1 [Example 234, 6-(3-Chloro-4-(2-chloro-3-(5-((((1r,4r)-4-hydroxycyclohexyl)amino)methyl)-6-methoxypyridin-2-yl)phenyl)pyridin-2-yl)-2-((3-hydroxy-3-methylazetidin-1-yl)methyl)-3-methylpyrrolo[2,1-f][1,2,4]triazin-4(3H)-one] | 143 nM |
| COc1nc(-c2cccc(-c3ccnc(-c4ccc5c(CNC[C@@H]6CCO6)nn(C)c5c4)c3Cl)c2Cl)ccc1CNC[C@@H]1CCC(=O)N1 [Example 235, (S)-5-((((6-(2-Chloro-3-(3-chloro-2-(1-methyl-3-(((((S)-oxetan-2-yl)methyl)amino)methyl)-1H-indazol-6-yl)pyridin-4-yl)phenyl)-2-methoxypyridin-3-yl)methyl)amino)methyl)pyrrolidin-2-one] | 65.1 nM |
| COc1cc(-c2nccc(-c3cccc(-c4ccc5c(OC)c(CNC[C@@H]6CCC(=O)N6)cc(Cl)c5n4)c3Cl)c2Cl)cc(F)c1CNC[C@@H]1CCC(=O)N1 [Example 236, (S)-5-((((8-Chloro-2-(2-chloro-3-(3-chloro-2-(3-fluoro-5-methoxy-4-(((((S)-5-oxopyrrolidin-2-yl)methyl)amino)methyl)phenyl)pyridin-4-yl)phenyl)-5-methoxyquinolin-6-yl)methyl)amino)methyl)pyrrolidin-2-one] | 53.9 nM |
